According to the supplement of paper PMC10307832:

How the values were obtained:
Experiment in all cases: relative viability (nuclei count vs DMSO), 5 days (fraction); higher = more cells survive
[1] = compound: CC1CC(=O)N(C2=CN=C(N=C2N1C3CCCC3)NC4=C(C=C(C=C4)C(=O)NC5CCN(CC5)C)OC)C [NPK76-II-72-1] + Nc1ncn([C@H]2C[C@H](O)[C@@H](CO)O2)c(=O)n1 [Decitabine] (partner 2 µM)
Outline: (§1)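 Lung cancer cell lines were seeded in 1536-well plates and dosed by pin tool the next day, with either a single drug or a fixed anchor-drug dose combined with five library-drug doses (not always all listed) spaced in √10 steps. Five days later, one step fixed the cells and stained their nuclei (final 0.05% Triton X-100, 1% formaldehyde, 1 ug/ml Hoechst), and nuclei were counted on 4× images. Relative viability is the nuclei count in treated wells divided by the count in vehicle wells, and each value is the median of duplicate plates.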

[2] = compound: CC1CC(=O)N(C2=CN=C(N=C2N1C3CCCC3)NC4=C(C=C(C=C4)C(=O)NC5CCN(CC5)C)OC)C [NPK76-II-72-1] + C[C@@H](Oc1cc(-c2cnn(C3CCNCC3)c2)cnc1N)c1c(Cl)ccc(F)c1Cl [Crizotinib] (partner 1 µM)
Outline: as §1

[3] = compound: CC[C@@H]1C(=O)N(C)c2cnc(Nc3ccc(C(=O)NC4CCN(C)CC4)cc3OC)nc2N1C1CCCC1 [BI-2536] + Cc1cc(Nc2cc(N3CCN(C)CC3)nc(Sc3ccc(NC(=O)C4CC4)cc3)n2)n[nH]1 [Tozasertib] (partner 0.1 µM)
Outline: as §1

[4] = compound: CC[C@@H]1C(=O)N(C)c2cnc(Nc3ccc(C(=O)NC4CCN(C)CC4)cc3OC)nc2N1C1CCCC1 [BI-2536] + O=C(CCCCCCC(=O)Nc1ccccc1)NO [Vorinostat] (partner 1 µM)
Outline: as §1

| Cell Line | relative viability ([1]; first compound 0.01 µM) | relative viability ([1]; first compound 0.03162 µM) | relative viability ([1]; first compound 0.1 µM) | relative viability ([1]; first compound 0.3162 µM) | relative viability ([1]; first compound 1 µM) | relative viability ([2]; first compound 0.01 µM) | relative viability ([2]; first compound 0.03162 µM) | relative viability ([2]; first compound 0.1 µM) | relative viability ([2]; first compound 0.3162 µM) | relative viability ([2]; first compound 1 µM) | relative viability ([3]; first compound 0.01 µM) | relative viability ([3]; first compound 0.03162 µM) | relative viability ([3]; first compound 0.1 µM) | relative viability ([3]; first compound 0.3162 µM) | relative viability ([3]; first compound 1 µM) | relative viability ([4]; first compound 0.01 µM) | relative viability ([4]; first compound 0.03162 µM) | relative viability ([4]; first compound 0.1 µM) | relative viability ([4]; first compound 0.3162 µM) | relative viability ([4]; first compound 1 µM) |
| --- | --- | --- | --- | --- | --- | --- | --- | --- | --- | --- | --- | --- | --- | --- | --- | --- | --- | --- | --- | --- |
| COR-L23 | 0.423 | 0.473 | 0.469 | 0.384 | 0.454 | 0.73 | 0.715 | 0.738 | 0.619 | 0.647 | 0.196 | 0.189 | 0.137 | 0.145 | 0.151 | 0.438 | 0.281 | 0.135 | 0.0945 | 0.0882 |
| ABC-1 | 0.94 | 1 | 0.859 | 1.13 | 0.887 | 0.907 | 1.13 | 1.06 | 1.01 | 1.1 | 0.203 | 0.147 | 0.185 | 0.197 | 0.233 | 1.22 | 1.06 | 0.613 | 0.418 | 0.51 |
| SW 900 | 0.425 | 0.407 | 0.429 | 0.504 | 0.467 |  |  |  |  |  | 0.566 | 0.694 | 0.418 | 0.278 | 0.173 | 0.445 | 0.598 | 0.481 | 0.159 | 0.218 |
| NCI-H838 | 0.495 | 0.458 | 0.455 | 0.466 | 0.476 | 0.865 | 0.952 | 0.823 | 0.734 | 0.848 | 0.239 | 0.269 | 0.241 | 0.229 | 0.225 | 0.766 | 0.668 | 0.371 | 0.152 | 0.141 |
| NCI-H1648 | 0.53 | 0.551 | 0.548 | 0.476 | 0.519 |  |  |  |  |  | 0.437 | 0.414 | 0.336 | 0.159 | 0.22 | 0.331 | 0.596 | 0.264 | 0.189 | 0.21 |
| A549 | 0.429 | 0.332 | 0.327 | 0.233 | 0.312 | 0.704 | 0.798 | 0.775 | 0.803 | 0.8 |  |  |  |  |  |  |  |  |  |  |
| A-427 | 0.547 | 0.592 | 0.611 | 0.541 | 0.574 | 0.798 | 0.908 | 0.907 | 0.777 | 0.969 | 0.187 | 0.211 | 0.189 | 0.15 | 0.146 | 0.871 | 0.859 | 0.296 | 0.19 | 0.165 |
| NCI-H1792 |  | 0.683 | 0.42 | 0.534 | 0.515 | 1.05 | 0.817 | 0.968 | 1 | 1.07 |  |  |  |  |  |  |  |  |  |  |
| LCLC-97TM1 | 0.226 | 0.233 | 0.195 | 0.259 | 0.211 |  | 0.414 | 0.438 | 0.259 | 0.354 | 0.236 | 0.184 | 0.176 | 0.182 | 0.178 | 0.721 | 0.787 | 0.0652 | 0.078 | 0.0571 |
| NCI-H1703 |  |  |  |  |  | 0.525 | 0.754 | 0.774 | 0.641 | 0.628 |  |  |  |  |  |  |  |  |  |  |
| LCLC-103H |  | 0.786 | 0.694 | 0.761 | 0.716 | 0.919 | 0.962 | 1.04 | 0.916 | 1.18 | 0.471 | 0.412 | 0.284 | 0.292 | 0.252 | 0.767 | 0.776 | 0.265 | 0.168 | 0.239 |
| PC-3 [JPC-3] | 0.811 |  | 0.882 | 0.878 | 0.95 | 0.943 | 0.958 | 0.998 | 0.938 | 0.995 | 0.889 | 0.693 | 0.707 | 0.289 | 0.313 | 0.857 | 0.677 | 0.416 | 0.306 | 0.291 |
| BEN | 0.661 | 0.713 | 0.671 | 0.743 | 0.76 | 0.89 | 1.07 | 0.908 | 0.77 | 0.893 | 0.524 | 0.546 | 0.452 | 0.58 | 0.553 | 0.574 | 0.452 | 0.412 | 0.386 | 0.38 |
| Calu-6 |  |  |  |  |  | 0.757 | 0.784 | 0.763 | 0.713 | 0.861 |  |  |  |  |  |  |  |  |  |  |
| NCI-H2342 | 0.686 | 0.694 | 0.759 | 0.668 | 0.78 |  |  |  |  |  | 0.449 | 0.508 | 0.468 | 0.378 | 0.294 |  | 0.705 | 0.79 | 0.445 | 0.385 |
| EBC-1 |  |  |  |  |  | 0.178 | 0.21 | 0.19 | 0.214 | 0.184 |  |  |  |  |  |  |  |  |  |  |
| NCI-H1299 |  |  |  |  |  | 0.921 | 0.911 | 0.984 | 0.932 | 0.919 |  |  |  |  |  |  |  |  |  |  |
| NCI-H2228 |  |  |  |  |  | 0.404 | 0.611 | 0.48 | 0.39 | 0.711 | 0.285 | 0.195 | 0.187 | 0.139 | 0.11 | 0.823 | 0.468 | 0.106 | 0.134 | 0.0804 |
| NCI-H522 | 0.74 | 0.598 | 0.686 |  | 0.633 |  |  |  |  |  | 0.488 | 0.581 | 0.634 | 0.447 | 0.412 | 0.785 | 0.933 | 0.533 | 0.277 | 0.284 |
| IA-LM |  |  |  |  |  | 0.704 | 0.818 | 0.727 | 0.616 | 0.989 |  |  |  |  |  | 1.07 | 1.26 | 0.692 | 0.0844 | 0.0605 |
| NCI-H1793 |  | 0.542 | 0.547 | 0.409 | 0.575 |  |  |  |  |  | 0.331 | 0.33 | 0.277 | 0.217 | 0.186 | 0.695 | 0.352 | 0.17 | 0.117 | 0.18 |
| CAL-12T |  |  |  |  |  | 0.685 | 0.665 | 0.719 | 0.544 | 0.674 | 0.291 | 0.294 | 0.2 | 0.194 | 0.186 | 0.817 | 0.695 | 0.278 | 0.147 | 0.129 |
